Source: the SangsterLogP compilation

Assays:
[1] = method code SF, from DOI: 10.1016/s0223-5234(99)80097-x; details: pH 7.5
[2] = not given; remark: listed apart in the source
[3] = method code SF-HPLC, from DOI: 10.1039/p29890001935
[4] = method code …, from Wiggins, H.; Karcher, A.; Michael Wilson, J.; Robb, I. (2008). Determining Octanol/Water Partitioning Coefficients for Industrial Surfactants. Proc. 15th Annual International Petroleum & Biofuels …
[5] = method code SF-HPLC, from DOI: 10.1023/a:1015828802490, PMID: 2308896
[6] = method code SF-AS, from DOI: 10.1016/0223-5234(94)90120-1; details: pH 7.4
[7] = method code SF-HPLC, from PMID: 1854437; details: pH 7.4
[8] = method code SF-HPLC, from DOI: 10.1006/pest.1998.2384
[9] = method code SF-AS, from DOI: 10.1021/jm9800301, PMID: 9748357; details: pH 7.4
[10] = not given; remark: listed apart in the source
[11] = method code SF, from DOI: 10.1023/a:1012119527214, PMID: 9453056; details: pH 12.5
[12] = not given; remark: listed apart in the source
[13] = method code SF-AS, from DOI: 10.1248/cpb.42.1084, PMID: 8069960
[14] = not given; remark: listed apart in the source
[15] = method code SF-HPLC, from DOI: 10.1021/jf0483669, PMID: 15913295; details: pH 7.4
[16] = method code SF-RC, from DOI: 10.1021/jm701375u, PMID: 18307287; details: pH 7.4
[17] = method code SF-AS, from DOI: 10.1006/pest.1994.1014
[18] = not given; remark: listed apart in the source
[19] = not given; remark: listed apart in the source
[20] = method code SF-RC, from DOI: 10.1016/j.bmc.2013.10.046, PMID: 24262882; details: pH 7.4
[21] = method code SF-AS, from M. Kuchar, J. Tomkova, V. Rejholec, & O. Roubinek. (1992). Some problems of the chromatographic evaluation of lipophicity. In Kuchar, M. (Ed.) QSAR in Design of Bioactive Compounds (pp. 65-81). Prous …; details: pH 3.4
[22] = method code SF-AS, from DOI: 10.1002/chin.199416148, PMID: 8117185
[23] = method code SF-HPLC, from DOI: 10.1016/j.apradiso.2007.04.014, PMID: 17574425; details: pH 7.4
[24] = method code SF-HPLC, from PMID: 2780588
[25] = method code SF, from DOI: 10.1080/10826070801924857
[26] = method code SF, from DOI: 10.1002/jps.2600830715, PMID: 7965680
[27] = method code SF, from DOI: 10.1016/s0960-894x(04)00268-9, PMID: 15109667; details: pH 7.4
[28] = method code SF-AS, from DOI: 10.3390/molecules16097565, PMID: 21894089
[29] = method code SF-HPLC, from DOI: 10.1002/ps.2780440103; details: pH 2.0
[30] = not given; remark: listed apart in the source
[31] = method code SF, from DOI: 10.1016/s0021-9673(03)00534-x, PMID: 12800922; details: pH 11.0

CC(=O)CC(c1ccccc1)c1c(O)c2ccccc2oc1=O (centres undefined)
logP: 2.4

Cc1c(O)c(=O)ccn1CCOC(=O)c1ccccc1
logD [1]: 1.04

Fc1ccccc1C1=NCC(=S)N(CC(F)(F)F)c2ccc(Cl)cc21
logP [2]: 4.03

Clc1ccccc1C1OCC2ON=C(c3ccccc3)C2CO1 (centres undefined)
logP [3]: 2.92

CCCCCCCCCCCCOCCOCCOCCOCCOCCOCCO
logP [4]: 4.81

COc1c(C)c2c(c(O)c1C/C=C(\C)CCC(=O)O)C(=O)OC2
logD ([5]; pH 2.0): 2.76

S=C1SCN(Cc2ccccc2)CN1CCc1ccccc1
logD [6]: 5

CCCCCCOC(=O)n1cnc(C)c1CSCCNC(=NC#N)NC
logD [7]: 3.1

O=[N+]([O-])N=C1N(Cc2ccccc2)CCN1Cc1ccc(Cl)nc1
logP [8]: 1.49

O=C(NCc1ccc(F)cc1)C(=O)c1c[nH]c2ccccc12
logD [9]: 2.88

CCc1cccc(N(C)C(=N)Nc2cc(SC)ccc2Cl)c1
logP [10]: 3

CCN(CC)CC(=O)Nc1c(C)cc(C)cc1C
logD [11]: 2.73

COC(=O)C(C)(C)Oc1ccc(C(=O)c2ccc(Cl)cc2)cc1
logP [12]: 4.27

S=C1SCN(Cc2ccccc2)CN1Cc1ccccc1
logD [6]: 4.9

COc1ccc2[nH]c3c4ccc(Cl)cc4ncc3c2c1
logP [13]: 4.49

CCCCCCCCOCCOCCOCCOCCO
logP [4]: 2.68

O=C(NC1CCCCCC1)NS(=O)(=O)c1cnccc1Nc1cccc(C(F)(F)F)c1
logP [14]: 2.02

Oc1ccc([C@H]2COc3cc(O)ccc3C2)cc1
logD [15]: 3.2

CCO[C@@H](Cc1ccc(OC/C=C/C#Cc2ccccc2)cc1)C(=O)O
logP [12]: 3.87

Oc1ccccc1N1CCN(Cc2cnn3ccccc23)CC1
logD [16]: 2.15

CCc1c(O)c(=O)ccn1CCOC(=O)c1ccccc1
logD [1]: 1.52

COc1c(C)c2c(c(OC(C)=O)c1C/C=C(\C)CCC(=O)OCC1COC(C)(C)O1)C(=O)OC2 (centres undefined)
logD ([5]; pH 7.4): 2.87

COc1ccc(CNC(=O)C(=O)c2c[nH]c3ccc([N+](=O)[O-])cc23)cc1
logD [9]: 2.17

CC(C)(C)N(NC(=O)c1ccccc1Cl)C(=O)c1ccccc1Cl
logP [17]: 2.75

CC1(C)Oc2ccc(C#N)cc2C(N2CCCC2=O)C1O (centres undefined)
logP: 2.1

CCCCCCN1CCN(Cc2ccc(Cl)nc2)C1=N[N+](=O)[O-]
logP [8]: 2.2

CC(C)(O)c1cc(Cl)c(Nc2nc3ccncc3c3c(=O)[nH]ccc23)c(Cl)c1
logP [18]: 1.34

NC(=O)C(CCN1CCCCC1)c1ccccc1Cl (centres undefined)
logP [19]: 2.46

COC(=O)C1C(c2ccc(I)cc2)C2CCC1N2CC=CI (centres undefined)
logD [20]: 5.29

COc1ccc2[nH]c3c(c2c1)CCNc1cc(Cl)ccc1-3
logP [13]: 4.24

Fc1ccccc1C1OCC2ON=C(c3ccccc3)C2CO1 (centres undefined)
logP [3]: 2.35

Brc1cccc(N2CCN(Cc3cc4ccccn4n3)CC2)n1
logD [16]: 1.78

CC(C)N(CCC(CCN1CCCCC1)(C(N)=O)c1ccccc1Cl)C(C)C (centres undefined)
logP [19]: 4.78

Cc1ccccc1C(=O)NN(C(=O)c1ccccc1Cl)C(C)(C)C
logP [17]: 2.91

O=C(NCC(F)(F)F)NS(=O)(=O)c1cnccc1NC1CCCCCC1
logP [14]: 0.95

O=C(O)CCc1ccc(OCc2ccccc2)cc1
logD [21]: 3.31

O=C(CCN1CCCC1)CN1C(=O)C2CC=CCC2C1=O (centres undefined)
logP [22]: 1.11

O=C(CCl)Nc1cc2c(Nc3cc(Cl)c(Cl)cc3F)ncnc2cc1OCCOCCOCCOCCOCCOCCF
logD [23]: 4.75

CCCCCCCCNC(=O)Cc1ccc(O)c(OC)c1
logP [24]: 2.94

CSc1cccc(N(C)C(=N)Nc2cc(SC)ccc2Cl)c1
logP [10]: 2.68

O=C(OCCF)C1C(c2ccc(I)cc2)C2CCC1N2CC=CI (centres undefined)
logD [20]: 5.39

CC(CC(=O)O)c1ccc(OCc2ccccc2)cc1 (centres undefined)
logD [21]: 3.58

CCCCCCCCOC(=O)OC[C@@H]1O[C@H](n2ccc(N)nc2=O)CS1
logP [25]: 1.72

O=C1CN=C(c2ccccc2F)c2cc(Cl)ccc2N1CC(F)(F)F
logP [2]: 3.36

CC1(C)CC(NC(=O)C(Cc2ccccc2)NC(=O)N(CCCl)N=O)CC(C)(C)N1O (centres undefined)
logP [26]: 2.3

CC(=O)OC(CC#CCS(=O)(=O)c1ccccc1)Cn1ccnc1[N+](=O)[O-] (centres undefined)
logD [27]: 1.35

C[C@H](c1nc2ccc(F)cc2s1)N1C(=O)C(=O)N(c2ccc(Cl)cc2)C1=O
logP [28]: 0.41

O=C(CCN1CCOCC1)CN1C(=O)C2CC=CCC2C1=O (centres undefined)
logP [22]: 0.56

O=C(CCl)Nc1ccc2ncnc(Nc3cc(Cl)c(Cl)cc3F)c2c1
logD [23]: 4.12

CSC(=NOC(=O)N(C)COC1OC(C(=O)O)C(O)C(O)C1O)C(=O)N(C)C (centres undefined)
logD [29]: -1.98

COC(=O)[C@H]1O[C@@H](Oc2ccc3ccc(=O)oc3c2)[C@H](O)[C@@H](O)[C@@H]1O
logD [29]: -1.08

CCCN(CC)C(CC)C(=O)Nc1c(C)cccc1C (centres undefined)
logD [11]: 3.22

CNC12CC(CN)CCC1CCc1ccccc12 (centres undefined)
logP [30]: 2

CC(C)(C)NC[C@H](O)COc1ccccc1C1CCCC1
logD [31]: 3.61

CCCCCCOC(=O)OC[C@@H]1O[C@H](n2ccc(N)nc2=O)CS1
logP [25]: 1.57

O=c1c(-c2ccc(O)cc2)coc2cc(O[C@@H]3O[C@H](CO)[C@@H](O)[C@H](O)[C@H]3O)ccc12
logD [15]: 0.32

CCCCCCCCOC(=O)Cc1ccc(O)c(OC)c1
logP [24]: 4.04

CC(C)c1ccc(N2C(=O)C(=O)N([C@H](C)c3nc4ccc(F)cc4s3)C2=O)cc1
logP [28]: 1.64

NS(=O)(=O)c1cc(Cl)c(Nc2nc3ccncc3c3c(=O)[nH]ccc23)c(Cl)c1
logP [18]: 1.17

CNC12CCCCC1CC(C)c1ccccc12 (centres undefined)
logP [30]: 3.96

CC(C)C(NC(=O)N(CCCl)N=O)C(=O)NC1CC(C)(C)N(O)C(C)(C)C1 (centres undefined)
logP [26]: 2.09

CCCCOC(=O)n1cnc(CSCCNC(=NC#N)NC)c1C
logD [7]: 2.15

CC(=O)OC(CC#CCS(=O)(=O)c1ccc([N+](=O)[O-])cc1)Cn1ccnc1[N+](=O)[O-] (centres undefined)
logD [27]: 1.18

CC(C)(C)NCC(O)COc1cccc2c1CCC(=O)N2 (centres undefined)
logD [31]: 1.49
